{"source": "patent US20200069648A1", "about": "“HALOALLYLAMINE PYRAZOLE DERIVATIVE INHIBITORS OF LYSYL OXIDASES AND USES THEREOF” (Pharmaxis Ltd., priority 2017, published 2020)", "system": "CCl4 induced liver fibrosis", "experiment": "CCl4 induced liver fibrosis model", "type": "in vivo", "conditions": "mice, CCl4 i.p. twice per week for 6 weeks; 0.1-100 mg/Kg; compared with vehicle-treated group", "procedure": "An analysis of the use of LOXL2 inhibitors to treat inflammatory/fibrotic diseases is performed through the use of a CCl4 induced liver fibrosis model. Liver injury is frequently followed by complete parenchymal regeneration due to regenerative potency of hepatocytes. Continuous liver injury due to the administration of CCl4 leads to extracellular matrix accumulation, accompanied by recurrent hepatocyte necrosis, inflammation, and regenerative processes, causing liver fibrosis and consequently liver cirrhosis (see Natsume, M., et al., Attenuated liver fibrosis and depressed serum albumin levels in carbon tetrachloride-treated IL-6-deficient mice. J. Leukoc. Biol., 1999, 66, 601-608 also See Yao, Q, Y., et al. Inhibition by curcumin of multiple sites of the transforming growth factor-beta1 signalling pathway ameliorates the progression of liver fibrosis induced by carbon tetrachloride in rats. BMC Complement Altern Med. 2012 Sep. 16; 12(1):156.).\nMice are injected intraperitoneally with CCl4 (i.p.) 1 ml/kg 25% CCl4 in olive oil, twice per week for a total period of 6 weeks. Compound 15 is given 0.1-100 mg/Kg throughout the period of the experimental procedure or only 3 weeks after CCl4 administration and then throughout the entire study.", "note": "Where a name gives a salt, the structure may show the parent alone."}
{"smiles": "Cc1nn(C/C(F)=C/CN)c(C)c1Cc1ccc(S(=O)(=O)N(C)C)c(Cl)c1", "note": "[Compound 15, (Z)-4-((1-(4-amino-2-fluorobut-2-en-1-yl)-3,5-dimethyl-1H-pyrazol-4-yl)methyl)-2-chloro-N,N-dimethylbenzenesulfonamide hydrochloride]", "values": [{"measurement": "reduction in liver fibrosis by liver sirius red staining with quantification", "value": "up to 50%"}]}
